# PubChem BioAssay (NCI)
#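 Five concentrations, 48 hours, 96-well plates. GI50 is the concentration that inhibits growth by half. TGI: total growth inhibition.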
# Columns and labels:
# Experiment in all cases: NCI-60 cell line screen, 48 h
# HCC-2998 colon = tested on: HCC-2998 colon
# SK-MEL-5 melanoma = tested on: SK-MEL-5 melanoma
# MDA-N = tested on: MDA-N
# SF-295 CNS = tested on: SF-295 CNS
# KM12 colon = tested on: KM12 colon
# HL-60(TB) leukemia = tested on: HL-60(TB) leukemia
# HCT-116 colon = tested on: HCT-116 colon
# HOP-92 NSCLC = tested on: HOP-92 NSCLC
# SF-268 CNS = tested on: SF-268 CNS
# SN12C renal = tested on: SN12C renal
SMILES,TGI (HCC-2998 colon) [µM],TGI (SK-MEL-5 melanoma) [µM],TGI (MDA-N) [µM],TGI (SF-295 CNS) [µM],TGI (KM12 colon) [µM],TGI (HL-60(TB) leukemia) [µM],TGI (HCT-116 colon) [µM],TGI (HOP-92 NSCLC) [µM],TGI (SF-268 CNS) [µM],TGI (SN12C renal) [µM],GI50 (HCC-2998 colon) [µM],GI50 (HL-60(TB) leukemia) [µM],GI50 (SF-268 CNS) [µM]
CCC(=O)Nc1ccc(N2C(=O)/C(=C/c3ccc(O)c(OC)c3)N=C2c2ccccc2)cc1,> 100,32.8,> 100,> 100,> 100,> 100,> 100,> 100,> 100,> 100,–,–,–
O=P1(N(CCCl)CCCl)NCCCO1 (stereo not drawn),> 205,> 250,> 250,> 246,> 238,220,> 250,> 250,> 250,> 250,–,–,–
C=C1CN=C(Nc2ccc(F)cc2F)S1,> 100,> 100,> 100,> 100,> 100,> 100,> 100,> 100,> 100,> 100,–,–,–
CCOC(=O)COC1=Nc2cc(OC)c(OC)c3nc(Cl)cc(c23)C1=O,10.5,3.53,2.63,24,28.6,0.879,3.1,3.22,6.83,3.3,–,–,–
Cc1sc2nc3n(sc4nc5sc(C)c(C)c5c(=O)n43)c(=O)c2c1C,> 100,> 100,> 100,> 100,> 100,> 100,> 100,> 100,> 100,> 100,–,–,–
CCC1(O)CC(O)c2c(O)c3c(c(O)c2C1C(=O)OC)C(=O)c1cccc(O)c1C3=O (stereo not drawn),21.4,6.39,47.1,10.7,17.4,6.07,11.7,32.1,16.2,17.3,–,–,–
CC(=O)NCC1OC2COC(c3ccccc3)OC2C2N=C(c3ccccc3)OC12 (stereo not drawn),> 100,> 100,> 100,> 100,> 100,52.9,> 100,> 100,> 100,> 100,–,–,–
C=C(C)[C@@H]1CC[C@]2(C(=O)OC3OC(COC4OC(CO)C(OC5OC(C)C(O)C(O)C5O)C(O)C4O)C(O)C(O)C3O)CC[C@]3(C)[C@H](CC[C@@H]4[C@@]5(C)CC[C@H](O)[C@@](C)(CO)[C@@H]5CC[C@]43C)[C@@H]12 (stereo partly drawn),> 6.91,> 8.46,> 10,> 8.59,> 10,1.13,> 6.75,> 6.7,9.89,9.79,–,–,–
C#Cc1cccc(Nc2ncnc3cc(OCCOC)c(OCCOC)cc23)c1,> 100,> 78.9,> 100,67.6,> 100,> 100,> 100,60.2,> 100,> 51.6,> 88.8,20.6,14.6
CCOC(=O)NC(OCc1ccccc1)(C(=O)OC)C(F)(F)F (stereo not drawn),> 100,> 100,> 100,> 100,> 100,> 100,> 100,> 100,> 100,> 100,–,–,–
O=C1c2ccccc2C2(c3ccc(Cl)cc3)N[C@@H]3CCCC[C@@H]3N12 (stereo partly drawn),> 100,> 100,> 100,> 100,> 100,> 100,> 100,> 100,> 100,> 100,–,–,–
Cc1cn([C@@H]2C[C@](C)(CO)N(C)O2)c(=O)[nH]c1=O,> 100,> 100,> 100,> 100,> 100,> 100,> 100,> 100,> 100,> 100,–,–,–
COc1ccc(/C=N/N=C(\N)NO)c(OC)c1OC,> 100,72,> 100,> 100,52.9,45.8,75.5,71.2,> 100,> 100,–,–,–
Cc1ccc(C(=O)NN=C(/N=N/c2cccc(C)c2)c2ccc(N(C)C)cc2)cc1,> 100,> 100,> 100,> 100,> 100,> 100,> 100,> 100,> 100,> 100,–,–,–
